# From patent EP4711368A1 (priority 2023, dated 2024)
# Read-outs that look alike come from different tables or passages of the source.
# Assays:
# [1] = tested on: SD rats; experiment: animal or person; assay type: in vivo; conditions: iv; for minimal effective dose: Rattus norvegicus; for Onset time / Righting feflex duration / Sedation Duration / Minimal effective anesthetic dose: rat, in vivo
# [2] = tested on: SD rats; conditions: rat, in vivo; for MLD: iv
# [3] = read-out: Minimal effective analgesic dose
# [4] = read-out: Minimal effective anesthetic dose
SMILES,"minimal effective dose [1, 3] [mg/kg]","minimal effective dose [1, 4] [mg/kg]",Onset time [1] [min],Righting feflex duration [1] [min],Sedation Duration [1] [min],TI ([2]; SD),MLD ([2]; SD) [mg/kg],Minimal effective anesthetic dose [1] [mg/kg],TI [2],MLD [2] [mg/kg]
CCN1C(=O)N(CC(=O)OC(C)C)N=C(c2ccccn2)c2cc(Br)ccc21 [Compound 256],10,5,0.17 to 0.50,0.32 to 26.03,13.38 to 59.65,6,30,,,
C=CC(=O)OCCC1N=C(c2ccccn2)c2cc(Br)ccc2-n2c(C)cnc21 (stereo not shown) [Compound 151],,,0.2 to 3.4,3.7 to 38.6,19.0 to 68.4,,,1.8,16.3,29.4
Cc1cnc2n1-c1ccc(Br)cc1C(c1ccccn1)=NC2CCOC(=O)N(C)C.O=S(=O)(O)c1ccccc1 (stereo not shown) [Compound 156D],,,0.2 to 0.6,0.6 to 10.9,12.8 to 36.9,,,5.0,>1.5,>7.5
C#C[C@@H](C)OC(=O)CN1N=C(c2ccccn2)c2cc(Br)ccc2-n2c(C)cnc21 [Compound 312],10,10,0.15 to 0.52,2.97 to 38.32,138.40 to 240,4,40,,,
CC(=O)OC1N=C(c2ccccn2)c2cc(Br)ccc2N(C)C1=O (stereo not shown) [Compound 164],,,0.2 to 1.0,1.2 to 50.4,116.7 to 284.0,,,5.0,8.0,40
Cc1cnc2n1-c1ccc(Br)cc1C(c1ccccn1)=NN2CCOC(=O)C(C)C [Compound 315],30,3.75,0.38 to 0.75,0.58 to 2.35,14.12 to 24.55,2.7,10,,,
CCN(C)C(=O)OCN1N=C(c2ccccn2)c2cc(Br)ccc2N(C)C1=O [Compound 292],20,20,0.40,2.75,46.82,1.5,30,,,
Cc1cnc2n1-c1ccc(Br)cc1C(c1ccccn1)=NN2CCOC(=O)N(C)C [Compound 317],10,5,0.22 to 0.38,4.08 to 25.97,18.73 to 70.28,4,20,,,
C=CC(C)(C)OC(=O)CCC1N=C(c2ccccn2)c2cc(Br)ccc2N(C)C1=O (stereo not shown) [Compound 19],,,0.4 to 1.0,1.2 to 5.5,9.7 to 14.8,,,1.0,>1.9,>1.9
CCC(=O)OCC1N=C(c2ccccn2)c2cc(Br)ccc2N(C)C1=O (stereo not shown) [Compound 40],,,0.2 to 0.5,1.3 to 17.2,40.2 to 364.0,,,5.0,8.0,40
CC(C)OC(=O)CN1N=C(c2ccccn2)c2cc(Br)ccc2N(C(C)C)C1=O [Compound 257],10,10,0.77 to 1.48,5.85 to 20.40,33.47 to 64.03,4,40,,,
Brc1ccc2c(c1)C(c1ccccn1)=NN1CCN=C1N2 [Compound 323],30,30,0.95 to 1.07,13.12 to 21.08,,>1.3,>40,,,
CC(C)C(=O)OCCN1N=C(c2ccccn2)c2cc(Br)ccc2N(C)C1=O [Compound 298],,10,0.22 to 0.38,6.73 to 8.97,17.03 to 30.07,2,20,,,
CC(C)Oc1nonc1CCN1N=C(c2ccccn2)c2cc(Br)ccc2N(C)C1=O [Compound 275],,30,0.93 to 4.90,6.37 to 17.25,,>2,>60,,,
C#CC(C)(C)OC(=O)CCC1N=C(c2ccccn2)c2cc([N+](=O)[O-])ccc2N(C)C1=O (stereo not shown) [Compound 32],,,0.2 to 0.4,1.8 to 7.7,21.1 to 45.7,,,5.0,6.0,30
CC(C)C(=O)CN1N=C(c2ccccn2)c2cc(Br)ccc2N(C)C1=O [Compound 279],,15,0.35,3.77,62.22,1.3,,,,20
CC(C)OC(=O)OCN1N=C(c2ccccn2)c2cc(Br)ccc2N(C)C1=O [Compound 289],20,5,0.15 to 0.68,0.53 to 32.23,20.27 to 311.87,8.3,41.7,,,
Cc1cnc2n1-c1ccc(Br)cc1C(c1ccccn1)=NC2COC(=O)CN(C)C (stereo not shown) [Compound 196],,,0.2 to 1.4,9.5 to 23.6,214.5 to 403.5,,,15,3.3,50
CN1C(=O)N(COC(=O)N2CCCC2)N=C(c2ccccn2)c2cc(Br)ccc21 [Compound 295],,20,0.20 to 0.52,3.70 to 13.25,34.23 to 172.50,2,40,,,
Cc1cnc2n1-c1ccc(Br)cc1C(c1ccccn1)=NN2COC(=O)N(C)C [Compound 320],15,15,0.65 to 0.92,2.03 to 5.98,,2,30,,,
C#CC(C)(C)OC(=O)CCC1N=C(c2ccccn2)c2cc(Br)ccc2N(C)C1=O (stereo not shown) [Compound 17],,,0.2 to 0.5,1.6 to 3.3,6.6 to 9.9,,,1.3,>3.8,>5
CN1C(=O)N(CC(=O)OC2COC2)N=C(c2ccccn2)c2cc(Br)ccc21 [Compound 245],20,10,0.15 to 0.67,1.27 to 1.40,11.02 to 18.83,4,40,,,
